Results: patent US20020198127A1, “Liquid cleaning compositions and their use” (Unilever Home & Personal Care USA, Division of Conopco, Inc., priority 2001, published 2002)
Blank lines part the entries; values can stand above or below the compound they belong to.

Test system: protease enzyme
Experiment: % residual activity (RA) of the protease enzyme in liquid detergent composition after storage at 37° C.
Type: biochemical
Conditions: for Avg. RA (%): 37° C.; for protease stability versus control, in words: Examples 1-3, storage at 37° C. up to 56 days
Procedure: All catalysts dosed at 0.1% by weight on tope of the composition except complex G. This catalyst was dosed at 0.06 weight %.
In all cases, the pH of the composition was 7.2.
The % residual activity (RA) of the protease enzyme after storage at 37° C. was measured up to 56 days for the compositions of Examples 1-4 alone (controls), for the same compositions with 0.1% by weight of the complex B added and the same compositions with only the free ligand A added on top of the formulation (on a mole equivalent basis of the amount of the ligand in 0.1% by weight of complex B).
In Examples 4-9, 11 and 12, the pH of the composition was 7.2.
In Example 10, the pH of the composition was 8.0.

Structure (SMILES): CN1CCN(C)CCN(C)CC1.CN1CCN(C)CCN(C)CC1.F[P-](F)(F)(F)(F)F.F[P-](F)(F)(F)(F)F.[Mn+4].[Mn+4].[O-2].[O-2].[O-2] [Complex E, [Mn2(1,4,7-trimethyl-1,4,7-triazacyclononane)2(μ-O)3] (PF6)2]
Avg. RA (%) (Example 7 composition pH 7.2, +0.1% Complex E, day 0): 100.0% | Avg. RA (%) (Example 7 composition pH 7.2, +0.1% Complex E, day 7): 93% | Avg. RA (%) (Example 7 composition pH 7.2, +0.1% Complex E, day 14): 87% | Avg. RA (%) (Example 7 composition pH 7.2, +0.1% Complex E, day 28): 80%

Structure (SMILES): CN1CCCN2CCN(C)CCCN(CC1)CC2 [Complex I, 5,12-dimethyl-1,5,8,12-tetraazabicyclo[6.6.2] hexadecane]
Avg. RA (%) (Example 12 composition pH 7.2, +0.1% Complex I, day 0): 100.0% | Avg. RA (%) (Example 12 composition pH 7.2, +0.1% Complex I, day 7): 84% | Avg. RA (%) (Example 12 composition pH 7.2, +0.1% Complex I, day 14): 78% | Avg. RA (%) (Example 12 composition pH 7.2, +0.1% Complex I, day 28): 67%

Structure (SMILES): CC(c1ccccn1)(c1ccccn1)N(Cc1ccccn1)Cc1ccccn1.O.O.[Cl-].[Cl-].[Fe+2] [Complex B, [Fe(MeN4py)Cl]Cl.2H20]
Avg. RA (%) (Ex. 1 composition pH 7.2, +0.1% Complex B, day 0): 100.0% | Avg. RA (%) (Ex. 1 composition pH 7.2, +0.1% Complex B, day 3): 93.7% | Avg. RA (%) (Ex. 1 composition pH 7.2, +0.1% Complex B, day 7): 84.1% | Avg. RA (%) (Ex. 1 composition pH 7.2, +0.1% Complex B, day 14): 93.9% | Avg. RA (%) (Ex. 1 composition pH 7.2, +0.1% Complex B, day 28): 79.0% | Avg. RA (%) (Ex. 1 composition pH 7.2, +0.1% Complex B, day 56): 71.3% | Avg. RA (%) (Ex. 2 composition pH 7.2, +0.1% Complex B, day 0): 100.0% | Avg. RA (%) (Ex. 2 composition pH 7.2, +0.1% Complex B, day 3): 92.2% | Avg. RA (%) (Ex. 2 composition pH 7.2, +0.1% Complex B, day 7): 87.1% | Avg. RA (%) (Ex. 2 composition pH 7.2, +0.1% Complex B, day 14): 80.4% | Avg. RA (%) (Ex. 2 composition pH 7.2, +0.1% Complex B, day 28): 89.7% | Avg. RA (%) (Ex. 2 composition pH 7.2, +0.1% Complex B, day 56): 75.4% | Avg. RA (%) (Ex. 3 composition pH 7.2, +0.1% Complex B, day 0): 100.0% | Avg. RA (%) (Ex. 3 composition pH 7.2, +0.1% Complex B, day 3): 79.0% | Avg. RA (%) (Ex. 3 composition pH 7.2, +0.1% Complex B, day 7): 74.0% | Avg. RA (%) (Ex. 3 composition pH 7.2, +0.1% Complex B, day 14): 64.9% | Avg. RA (%) (Ex. 3 composition pH 7.2, +0.1% Complex B, day 28): 59.8% | Avg. RA (%) (Ex. 3 composition pH 7.2, +0.1% Complex B, day 56): 48.7% | Avg. RA (%) (Example 4 composition (with sorbitol) pH 7.2, +0.1% Complex B, day 0): 100.0% | Avg. RA (%) (Example 4 composition (with sorbitol) pH 7.2, +0.1% Complex B, day 7): 98% | Avg. RA (%) (Example 4 composition (with sorbitol) pH 7.2, +0.1% Complex B, day 14): 97% | Avg. RA (%) (Example 4 composition (with sorbitol) pH 7.2, +0.1% Complex B, day 28): 92% | Avg. RA (%) (Example 10 composition pH 8.0, +0.1% Complex B, day 0): 100.0% | Avg. RA (%) (Example 10 composition pH 8.0, +0.1% Complex B, day 3): 92% | Avg. RA (%) (Example 10 composition pH 8.0, +0.1% Complex B, day 7): 91% | Avg. RA (%) (Example 10 composition pH 8.0, +0.1% Complex B, day 14): 86% | Avg. RA (%) (Example 10 composition pH 8.0, +0.1% Complex B, day 28): 83% | protease stability versus control, in words: improvement in stability

Structure (SMILES): COC(=O)C12CN(Cc3ccccn3)CC(C(=O)OC)(C1=O)C(c1ccccn1)N(C)C2c1ccccn1.O.[Cl][Fe][Cl] (stereo not drawn) [Complex H, Chloro(dimethyl 2,4-di-(2-pyridyl)-3-methyl-7-(pyridin-2-ylmethyl)-3,7-diaza-bicyclo[3.3.1]nonan-9-one-1,5-dicarboxylate)iron(II)-chloride hydrate]
Avg. RA (%) (Example 9 composition pH 7.2, +0.1% Complex H, day 0): 100.0% | Avg. RA (%) (Example 9 composition pH 7.2, +0.1% Complex H, day 7): 93% | Avg. RA (%) (Example 9 composition pH 7.2, +0.1% Complex H, day 14): 91% | Avg. RA (%) (Example 9 composition pH 7.2, +0.1% Complex H, day 28): 88%

Next, values leading:

Avg. RA (%) (Example 6 composition pH 7.2, +0.1% Complex D, day 0): 100.0% | Avg. RA (%) (Example 6 composition pH 7.2, +0.1% Complex D, day 7): 100% | Avg. RA (%) (Example 6 composition pH 7.2, +0.1% Complex D, day 14): 92% | Avg. RA (%) (Example 6 composition pH 7.2, +0.1% Complex D, day 28): 74%
Structure (SMILES): F[P-](F)(F)(F)(F)F.[Cl-].[Fe+2].c1ccc(CNCCN(Cc2ccccn2)Cc2ccccn2)nc1 [Complex D, [Fe(trispicenNH)Cl]PF6]

Avg. RA (%) (Ex. 1 composition pH 7.2, +0.1% mole equiv. Ligand A, day 0): 100.0% | Avg. RA (%) (Ex. 1 composition pH 7.2, +0.1% mole equiv. Ligand A, day 3): 85.0% | Avg. RA (%) (Ex. 1 composition pH 7.2, +0.1% mole equiv. Ligand A, day 7): 63.9% | Avg. RA (%) (Ex. 1 composition pH 7.2, +0.1% mole equiv. Ligand A, day 14): 48.8% | Avg. RA (%) (Ex. 1 composition pH 7.2, +0.1% mole equiv. Ligand A, day 28): 38.0% | Avg. RA (%) (Ex. 1 composition pH 7.2, +0.1% mole equiv. Ligand A, day 56): 18.4% | Avg. RA (%) (Ex. 2 composition pH 7.2, +0.1% mole equiv. Ligand A, day 0): 100.0% | Avg. RA (%) (Ex. 2 composition pH 7.2, +0.1% mole equiv. Ligand A, day 3): 70.7% | Avg. RA (%) (Ex. 2 composition pH 7.2, +0.1% mole equiv. Ligand A, day 7): 63.1% | Avg. RA (%) (Ex. 2 composition pH 7.2, +0.1% mole equiv. Ligand A, day 14): 46.9% | Avg. RA (%) (Ex. 2 composition pH 7.2, +0.1% mole equiv. Ligand A, day 28): 29.3% | Avg. RA (%) (Ex. 2 composition pH 7.2, +0.1% mole equiv. Ligand A, day 56): 13.0% | Avg. RA (%) (Ex. 3 composition pH 7.2, +0.1% mole equiv. Ligand A, day 0): 100.0% | Avg. RA (%) (Ex. 3 composition pH 7.2, +0.1% mole equiv. Ligand A, day 3): 72.0% | Avg. RA (%) (Ex. 3 composition pH 7.2, +0.1% mole equiv. Ligand A, day 7): 53.0% | Avg. RA (%) (Ex. 3 composition pH 7.2, +0.1% mole equiv. Ligand A, day 14): 32.3% | Avg. RA (%) (Ex. 3 composition pH 7.2, +0.1% mole equiv. Ligand A, day 28): 18.6% | Avg. RA (%) (Ex. 3 composition pH 7.2, +0.1% mole equiv. Ligand A, day 56): 5.2% | protease stability versus control, in words: improvement in stability
Structure (SMILES): CC(c1ccccn1)(c1ccccn1)N(Cc1ccccn1)Cc1ccccn1 [Ligand A, N,N-bis(pyridin-2-yl-methyl)-1,1-bis(pyridin-2-yl)-1-aminoethane]

Avg. RA (%) (Example 5 composition pH 7.2, +0.1% Complex C, day 0): 100.0% | Avg. RA (%) (Example 5 composition pH 7.2, +0.1% Complex C, day 7): 98% | Avg. RA (%) (Example 5 composition pH 7.2, +0.1% Complex C, day 14): 91% | Avg. RA (%) (Example 5 composition pH 7.2, +0.1% Complex C, day 28): 78%
Structure (SMILES): [Cl-].[Cl-].[Fe+2].c1ccc(CN(Cc2ccccn2)C(c2ccccn2)c2ccccn2)nc1 [Complex C]

Avg. RA (%) (Example 11 composition pH 7.2, +0.1% Ligand F, day 0): 100.0% | Avg. RA (%) (Example 11 composition pH 7.2, +0.1% Ligand F, day 7): 85% | Avg. RA (%) (Example 11 composition pH 7.2, +0.1% Ligand F, day 14): 76% | Avg. RA (%) (Example 11 composition pH 7.2, +0.1% Ligand F, day 28): 63%
Structure (SMILES): c1ccc(CN(CCN(Cc2ccccn2)Cc2ccccn2)Cc2ccccn2)nc1 [Ligand F, N,N,N′,N′-tetrakis(pyridin-2ylmethyl)ethylenediamine]

Avg. RA (%) (Example 8 composition pH 7.2, +0.06% Complex G, day 0): 100.0% | Avg. RA (%) (Example 8 composition pH 7.2, +0.06% Complex G, day 7): 97% | Avg. RA (%) (Example 8 composition pH 7.2, +0.06% Complex G, day 14): 89% | Avg. RA (%) (Example 8 composition pH 7.2, +0.06% Complex G, day 28): 77%
Structure (SMILES): F[P-](F)(F)(F)(F)F.F[P-](F)(F)(F)(F)F.[Fe+2].c1ccc(CN(CCN(Cc2ccccn2)Cc2ccccn2)Cc2ccccn2)nc1 [Complex G, [Fe(tpen)] (PF6)2]
